Data published in US8192962B2, “Processes for detecting toxic substances” (Daikin Industries, Ltd., priority 2001, dated 2012).

Tested on: Genes belonging to other category
Experiment: DNA chip mRNA expression in yeast, genes belonging to other category (Table 9)
Format: cell-based, Saccharomyces cerevisiae S288C
Summary of the method: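 Untreated cultures served as reference for log-phase S288C yeast given a growth-inhibiting, non-lethal toxicant dose for 2 h at 25° C. in YPD. Gene expression was measured on a whole-genome DNA chip from Cy3/Cy5-labeled cDNA.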

Cl[C@H]1[C@H](Cl)[C@@H](Cl)[C@@H](Cl)[C@H](Cl)[C@H]1Cl [(7), γ-hexachlorocyclohexane]
The level of expressed mRNA in the presence of chemical substance/The level of expressed mRNA in the absence of chemical substance (yeast gene YAR010C): 1.9
The level of expressed mRNA in the presence of chemical substance/The level of expressed mRNA in the absence of chemical substance (yeast gene YBL005W-A): 1.4
The level of expressed mRNA in the presence of chemical substance/The level of expressed mRNA in the absence of chemical substance (yeast gene YBL041W): 1.6
The level of expressed mRNA in the presence of chemical substance/The level of expressed mRNA in the absence of chemical substance (yeast gene YBL043W): 1.5
The level of expressed mRNA in the presence of chemical substance/The level of expressed mRNA in the absence of chemical substance (yeast gene YBL078C): 3.1
The level of expressed mRNA in the presence of chemical substance/The level of expressed mRNA in the absence of chemical substance (yeast gene YBR214W): 1.1
The level of expressed mRNA in the presence of chemical substance/The level of expressed mRNA in the absence of chemical substance (yeast gene YCL020W): 1.5
The level of expressed mRNA in the presence of chemical substance/The level of expressed mRNA in the absence of chemical substance (yeast gene YCL027W): 1.0
The level of expressed mRNA in the presence of chemical substance/The level of expressed mRNA in the absence of chemical substance (yeast gene YCR004C): 1.4
The level of expressed mRNA in the presence of chemical substance/The level of expressed mRNA in the absence of chemical substance (yeast gene YCR071C): 1.4
The level of expressed mRNA in the presence of chemical substance/The level of expressed mRNA in the absence of chemical substance (yeast gene YCR088W): 1.2
The level of expressed mRNA in the presence of chemical substance/The level of expressed mRNA in the absence of chemical substance (yeast gene YDL008W): 2.0
The level of expressed mRNA in the presence of chemical substance/The level of expressed mRNA in the absence of chemical substance (yeast gene YDL238C): 1.4
The level of expressed mRNA in the presence of chemical substance/The level of expressed mRNA in the absence of chemical substance (yeast gene YDR055W): 1.5
The level of expressed mRNA in the presence of chemical substance/The level of expressed mRNA in the absence of chemical substance (yeast gene YDR084C): 0.9
The level of expressed mRNA in the presence of chemical substance/The level of expressed mRNA in the absence of chemical substance (yeast gene YDR085C): 4.1
The level of expressed mRNA in the presence of chemical substance/The level of expressed mRNA in the absence of chemical substance (yeast gene YDR104C): 1.0
The level of expressed mRNA in the presence of chemical substance/The level of expressed mRNA in the absence of chemical substance (yeast gene YDR115W): 1.6
The level of expressed mRNA in the presence of chemical substance/The level of expressed mRNA in the absence of chemical substance (yeast gene YDR259C): 2.8
The level of expressed mRNA in the presence of chemical substance/The level of expressed mRNA in the absence of chemical substance (yeast gene YDR315C): 1.4
The level of expressed mRNA in the presence of chemical substance/The level of expressed mRNA in the absence of chemical substance (yeast gene YDR358W): 2.8
The level of expressed mRNA in the presence of chemical substance/The level of expressed mRNA in the absence of chemical substance (yeast gene YDR388W): 1.1
The level of expressed mRNA in the presence of chemical substance/The level of expressed mRNA in the absence of chemical substance (yeast gene YDR432W): 0.5
The level of expressed mRNA in the presence of chemical substance/The level of expressed mRNA in the absence of chemical substance (yeast gene YDR481C): 0.7
The level of expressed mRNA in the presence of chemical substance/The level of expressed mRNA in the absence of chemical substance (yeast gene YDR510W): 1.6
The level of expressed mRNA in the presence of chemical substance/The level of expressed mRNA in the absence of chemical substance (yeast gene YEL042W): 0.5
The level of expressed mRNA in the presence of chemical substance/The level of expressed mRNA in the absence of chemical substance (yeast gene YEL066W): 1.8
The level of expressed mRNA in the presence of chemical substance/The level of expressed mRNA in the absence of chemical substance (yeast gene YER039C): 1.3
The level of expressed mRNA in the presence of chemical substance/The level of expressed mRNA in the absence of chemical substance (yeast gene YER107C): 1.0
The level of expressed mRNA in the presence of chemical substance/The level of expressed mRNA in the absence of chemical substance (yeast gene YER130C): 1.5
The level of expressed mRNA in the presence of chemical substance/The level of expressed mRNA in the absence of chemical substance (yeast gene YFL022C): 0.3
The level of expressed mRNA in the presence of chemical substance/The level of expressed mRNA in the absence of chemical substance (yeast gene YFL028C): 2.0
The level of expressed mRNA in the presence of chemical substance/The level of expressed mRNA in the absence of chemical substance (yeast gene YFL043C): 1.8
The level of expressed mRNA in the presence of chemical substance/The level of expressed mRNA in the absence of chemical substance (yeast gene YGL158W): 1.3
The level of expressed mRNA in the presence of chemical substance/The level of expressed mRNA in the absence of chemical substance (yeast gene YGL229C): 2.2
The level of expressed mRNA in the presence of chemical substance/The level of expressed mRNA in the absence of chemical substance (yeast gene YGR136W): 1.5
The level of expressed mRNA in the presence of chemical substance/The level of expressed mRNA in the absence of chemical substance (yeast gene YGR189C): 0.6
The level of expressed mRNA in the presence of chemical substance/The level of expressed mRNA in the absence of chemical substance (yeast gene YGR213C): 7.0
The level of expressed mRNA in the presence of chemical substance/The level of expressed mRNA in the absence of chemical substance (yeast gene YGR257C): 2.4
The level of expressed mRNA in the presence of chemical substance/The level of expressed mRNA in the absence of chemical substance (yeast gene YHR004C): 1.5
The level of expressed mRNA in the presence of chemical substance/The level of expressed mRNA in the absence of chemical substance (yeast gene YHR071W): 1.0
The level of expressed mRNA in the presence of chemical substance/The level of expressed mRNA in the absence of chemical substance (yeast gene YHR139C): 1.5
The level of expressed mRNA in the presence of chemical substance/The level of expressed mRNA in the absence of chemical substance (yeast gene YHR142W): 0.9
The level of expressed mRNA in the presence of chemical substance/The level of expressed mRNA in the absence of chemical substance (yeast gene YIL123W): 0.5
The level of expressed mRNA in the presence of chemical substance/The level of expressed mRNA in the absence of chemical substance (yeast gene YIL140W): 0.5
The level of expressed mRNA in the presence of chemical substance/The level of expressed mRNA in the absence of chemical substance (yeast gene YJL089W): 1.1
The level of expressed mRNA in the presence of chemical substance/The level of expressed mRNA in the absence of chemical substance (yeast gene YJL116C): 0.8
The level of expressed mRNA in the presence of chemical substance/The level of expressed mRNA in the absence of chemical substance (yeast gene YJR004C): 0.4
The level of expressed mRNA in the presence of chemical substance/The level of expressed mRNA in the absence of chemical substance (yeast gene YJR086W): 1.7
The level of expressed mRNA in the presence of chemical substance/The level of expressed mRNA in the absence of chemical substance (yeast gene YKL008C): 1.4
